Read-outs that look alike come from different tables or passages of the source. Each block holds one compound with its values, some of them ahead of it.
Columns and labels:
[1] = test system: MIA PaCa-2 pancreatic cancer cell line; assay: Cell proliferation assay (DAPI); format: cell-based; settings: Homo sapiens; for inhibition at 10 µM: read-out: % Inhibition of cell proliferation, MIA PaCa-2 % inh
Experimental: Cell lines: Human NSCLC cells NCI-H1975 and NCI-H1299, and tumor-derived pancreatic cancer cell lines Panc-1, MIA-PACA2, and BxPC3, were all purchased from American Type Culture Collection and grown in complete RPMI medium (BxPC3, NCI-H1975 and NCI-H1299) or DMEM-High Glucose (Panc1 and MIA-PaCa-2), supplemented with penicillin (100 U/mL), streptomycin (100 μg/mL), and 10% heat-inactivated FBS at 37° C. in a humidified incubator with 5% CO2.
Method: Cells were plated at 2000 to 5000 cells/well density in 96-wells plate and cultured ON. Small molecules to be tested were added to the cells in the final concentration of 10 µM in the presence of 0.3% DMSO and 10% FBS, and incubated for 2-4 days at 37° C. in a humidified incubator with 5% CO2. For IC50 value determination, serial dilutions of compounds were added to cells under the same conditions.
Assay: At the end of the incubation period, cell cultures were fixed with a 50-50 mixture (v/v) acetone-methanol for 10 minutes at −20° C., followed by rehydration in PBS for 10 minutes at room temperature. DNA total content was determined by staining cells with DAPI (1 ug/ml) in PBS for 10 minutes at room temperature, followed by 3 washes with PBS. After staining, DAPI fluorescence was recorded (358 nm excitation/461 nm emission) with the 96-well plate reader Molecular Devices Spectramax M3; degree of small molecule-dependent proliferation inhibition was calculated from raw data.

KRas G12D mutant = target: T1, KRas G12D mutant (Homo sapiens, UniProt P01116, G12D); assay: Ras GTP binding domain inhibition assay (Cy3-GTP/Cy5-GTP competition); settings: at 20 μM
T1 construct: fused on or other part: His tag, used for capture on nickel-coated plates
Method in brief: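 Ni-plate immobilised His-Ras, overnight 4 °C; cpd 20 μM (or dilution series for IC50), 1% DMSO, 3 h RT; optional His-Sos […] last hour; Cy3- or Cy5-GTP 100 nM, 45 min RT; 3× wash; bound fluorescence read.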

Rac-1 = Rac-1 (Homo sapiens, UniProt P63000); assay: as above
Method in brief: (§1)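 First, His-tagged protein is coated on nickel wells overnight at 4 °C. Next, compound (20 μM single point or serial dilution) is added for 3 h at room temperature, with or without Sos exchange factor in the last hour. Finally, 100 nM labelled GTP binds for 45 min and retained signal is measured.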

Rho-A = Rho-A (Homo sapiens, UniProt P61586); assay: as above
Method in brief: as §1

[2] = with SOS, read-out: KRas G12D mutant + SOS: % inh.
[3] = without SOS, read-out: KRas G12D mutant: % inh.
[4] = with SOS, read-out: Rac-1 + SOS: % inh.
[5] = without SOS, read-out: Rac-1: % inh.
[6] = with SOS, read-out: Rho-A + SOS: % inh.
[7] = without SOS, read-out: Rho-A: % inh.

Structure (SMILES): Cn1ccnc1-c1nc(O)c(O)c(C(=O)N2CCCC2)n1 [drawing 606]
inhibition at 10 µM ([1]; 2-4 days, MIA PaCa-2): 0%

Structure (SMILES): COCCNc1nc(-c2cn(C)cn2)nc2sc(-c3cc(OC)ccc3Cl)c(-c3ccc(OC)cc3)c12 [drawing 566]
inhibition at 10 µM ([1]; 2-4 days, MIA PaCa-2): 76 to 100%

Structure (SMILES): CC(C)NC(=O)c1nc(-c2nccn2C)nc(O)c1O [drawing 604]
inhibition at 10 µM ([1]; 2-4 days, MIA PaCa-2): 26 to 50%

Structure (SMILES): COCCCN(C)c1nc(-c2nccn2C)nc2sc(-c3ccn(C)n3)c(-c3ccccc3)c12 [drawing 543]
IC50 ([1]; MIA PaCa-2): > 1000 nM
inhibition at 10 µM ([1]; 2-4 days, MIA PaCa-2): 76 to 100%

Structure (SMILES): COC1CCN(c2nc(-c3nccn3C)nc3sc(-c4ccnn4C)c(-c4ccccc4)c23)C1 (centres unmarked) [drawing 570]
inhibition at 10 µM ([1]; 2-4 days, MIA PaCa-2): 26 to 50%

Structure (SMILES): COCCn1ccnc1-c1nc(O)c2scc(-c3ccccn3)c2n1 [drawing 532]
inhibition at 10 µM ([1]; 2-4 days, MIA PaCa-2): 76 to 100%

Structure (SMILES): Cn1ccc(-c2sc3nc(-c4nccn4C)nc(N4CCC5(CCOC5)C4)c3c2-c2ccccc2)n1 (centres unmarked) [drawing 551]
IC50 ([1]; MIA PaCa-2): > 1000 nM
inhibition at 10 µM ([1]; 2-4 days, MIA PaCa-2): 26 to 50%

Structure (SMILES): Cc1cc(Cn2ccnc2-c2nc(O)c3scc(-c4ccccn4)c3n2)on1 [drawing 533]
inhibition at 10 µM ([1]; 2-4 days, MIA PaCa-2): 76 to 100%

Structure (SMILES): Cn1ccnc1-c1nc(O)c(O)c(C(=O)N2CCCCC2)n1 [drawing 608]
inhibition at 10 µM ([1]; 2-4 days, MIA PaCa-2): 1 to 25%

Structure (SMILES): Cn1ccnc1-c1nc(O)c(O)c(C(=O)NC2CCC2)n1 [drawing 609]
inhibition at 10 µM ([1]; 2-4 days, MIA PaCa-2): 1%

Structure (SMILES): COc1cccc(Oc2nc(-c3ccccn3)nc(O)c2OC)c1 [drawing 590]
inhibition at 10 µM ([1]; 2-4 days, MIA PaCa-2): 0%

Structure (SMILES): COCCn1cc(-c2sc3nc(-c4nccn4C)nc(N4CCC(OC)C4)c3c2-c2ccccc2)cn1 (centres unmarked) [drawing 575]
inhibition at 10 µM ([1]; 2-4 days, MIA PaCa-2): 76 to 100%

The next lines start with results.

IC50 ([1]; MIA PaCa-2 (Table 5A)): > 1000 nM
Structure (SMILES): COC1CCC(Nc2nc(-c3nccn3C)nc3sc(-c4cccc5[nH]ncc45)c(C)c23)C1 (centres unmarked) [drawing 630]
inhibition at 10 µM ([1]; MIA PaCa-2 (Table 5A)): 76 to 100%

IC50 ([1]; MIA PaCa-2 (Table 5A)): 750 to 1000 nM
Structure (SMILES): CO[C@H]1CC[C@@H](Nc2nc(-c3ncc[nH]3)nc3sc(-c4ccn(C)n4)c(-c4ccccc4)c23)C1 [drawing 646]
inhibition at 10 µM ([1]; MIA PaCa-2 (Table 5A)): 76 to 100%

IC50 ([1]; MIA PaCa-2 (Table 5A)): > 1000 nM
Structure (SMILES): CN(C)CCOCCNc1nc(-c2nccn2C)nc2sc(-c3ccn(C)n3)c(-c3ccccc3)c12 [drawing 642]
inhibition at 10 µM ([1]; MIA PaCa-2 (Table 5A)): 76 to 100%

IC50 ([1]; MIA PaCa-2 (Table 5A)): > 1000 nM
Structure (SMILES): COC1CCN(c2nc(-c3nccn3C)nc3sc(-c4cccc(O)c4F)c(-c4ccccc4)c23)C1 (centres unmarked) [drawing 625]
inhibition at 10 µM ([1]; MIA PaCa-2 (Table 5A)): 76 to 100%

IC50 ([1]; MIA PaCa-2 (Table 5A)): > 1000 nM
Structure (SMILES): COc1nc(-c2ccccn2)nc2c(-c3ccccn3)csc12 [drawing 648]
inhibition at 10 µM ([1]; MIA PaCa-2 (Table 5A)): 51 to 75%

IC50 ([1]; MIA PaCa-2 (Table 5A)): 750 to 1000 nM
Structure (SMILES): CO[C@H]1CC[C@@H](Nc2nc(-c3nccn3C)nc3sc(-c4ccn(C)n4)c(C)c23)C1 [drawing 650]
inhibition at 10 µM ([1]; MIA PaCa-2 (Table 5A)): 76 to 100%

inhibition at 20 µM (KRas G12D mutant; [2]): 76 to 100%
inhibition at 20 µM (KRas G12D mutant; [3]): 51 to 75%
inhibition at 20 µM (Rac-1; [4]): 76 to 100%
inhibition at 20 µM (Rac-1; [5]): 76 to 100%
inhibition at 20 µM (Rho-A; [6]): 76 to 100%
inhibition at 20 µM (Rho-A; [7]): 76 to 100%
Structure (SMILES): Cc1c(-c2ccn(C)n2)sc2nc(-c3nccn3C)nc(NCCCC(=O)N(C)C)c12 [drawing 1052]

inhibition at 20 µM (KRas G12D mutant; [2]): 26 to 50%
inhibition at 20 µM (KRas G12D mutant; [3]): 26 to 50%
inhibition at 20 µM (Rac-1; [4]): 51 to 75%
inhibition at 20 µM (Rac-1; [5]): 51 to 75%
inhibition at 20 µM (Rho-A; [6]): 26 to 50%
inhibition at 20 µM (Rho-A; [7]): 51 to 75%
Structure (SMILES): COCCNc1nc(-c2cn(C)cn2)nc2sc(-c3cc(OC)ccc3Cl)c(-c3ccc(OC)cc3)c12 [drawing 930]

inhibition at 20 µM (KRas G12D mutant; [2]): 51 to 75%
inhibition at 20 µM (KRas G12D mutant; [3]): 51 to 75%
inhibition at 20 µM (Rac-1; [4]): 76 to 100%
inhibition at 20 µM (Rac-1; [5]): 51 to 75%
inhibition at 20 µM (Rho-A; [6]): 51 to 75%
inhibition at 20 µM (Rho-A; [7]): 51 to 75%
Structure (SMILES): CO[C@H]1C[C@@H](Nc2nc(-c3nccn3C)nc3sc(C(=O)N4CCOCC4)c(-c4ccccc4)c23)C1 [drawing 1057]

inhibition at 20 µM (KRas G12D mutant; [2]): 51 to 75%
inhibition at 20 µM (KRas G12D mutant; [3]): 51 to 75%
inhibition at 20 µM (Rac-1; [4]): 51 to 75%
inhibition at 20 µM (Rac-1; [5]): 26 to 50%
inhibition at 20 µM (Rho-A; [6]): 26 to 50%
inhibition at 20 µM (Rho-A; [7]): 26 to 50%
Structure (SMILES): COC1CCN(c2nc(-c3nccn3C)nc3sc(-c4ccnc(N(C)C)c4)c(-c4ccccc4)c23)C1 (centres unmarked) [drawing 958]

inhibition at 20 µM (KRas G12D mutant; [2]): 1 to 25%
inhibition at 20 µM (KRas G12D mutant; [3]): 26 to 50%
inhibition at 20 µM (Rac-1; [4]): 26 to 50%
inhibition at 20 µM (Rac-1; [5]): 1 to 25%
inhibition at 20 µM (Rho-A; [6]): 0%
inhibition at 20 µM (Rho-A; [7]): 26 to 50%
Structure (SMILES): Cn1ccc(-c2sc3nc(-c4nccn4C)nc(NCC4CCOC4)c3c2-c2ccccc2)n1 (centres unmarked) [drawing 996]

inhibition at 20 µM (KRas G12D mutant; [2]): 1 to 25%
inhibition at 20 µM (KRas G12D mutant; [3]): 26 to 50%
inhibition at 20 µM (Rac-1; [4]): 26 to 50%
inhibition at 20 µM (Rac-1; [5]): 26 to 50%
inhibition at 20 µM (Rho-A; [6]): 26 to 50%
inhibition at 20 µM (Rho-A; [7]): 26 to 50%
Structure (SMILES): COc1nc(-c2ccccn2)nc2c(-c3ccccn3)csc12 [drawing 1048]

inhibition at 20 µM (KRas G12D mutant; [2]): 26 to 50%
inhibition at 20 µM (KRas G12D mutant; [3]): 51 to 75%
inhibition at 20 µM (Rac-1; [4]): 51 to 75%
inhibition at 20 µM (Rac-1; [5]): 51 to 75%
inhibition at 20 µM (Rho-A; [6]): 76 to 100%
inhibition at 20 µM (Rho-A; [7]): 76 to 100%
Structure (SMILES): COc1c(O)nc(-c2ccccn2)nc1Oc1ccc2ncccc2c1 [drawing 939]

From patent publication US20250296938A1, “Compounds that Interact with the Ras Superfamily for the Treatment of Cancers, Inflammatory Diseases, Rasopathies, and Fibrotic Disease” (SHY Therapeutics, LLC, priority 2018, published 2025)
